In US8329859B2, “Peptides that home to tumor lymphatic vasculature and methods of using same” (Sanford-Burnham Medical Research Institute, priority 2001, dated 2012):
“Also recorded” adds a separate entry of the source. No end group written: not given here.

Key:
[1] = tested on: primary MDA-MB-435 breast carcinoma tumor cell suspensions; assay: Ex vivo phage binding to primary 435 tumor cell suspensions; set-up: species or system human; details: synthetic peptide added
Experimental: Selected phage were enriched 30-fold relative to nonrecombinant T7 phage in the tumor. Forty-eight individual clones were randomly chosen from the in vivo selected pool, and the inserts sequenced as described below. Individual clones were assayed for the ability to bind cultured 435 cells as well as cell suspensions prepared from 435 tumors.
Xenografts, tumor cell suspensions and ex vivo selections were performed essentially as follows. Nude Balb/c mice were subcutaneously injected with 1×10^6 MDA-MB-435 tumor cells to generate breast carcinoma xenografts. Human MDA-MB-435 breast carcinoma xenograft tumors were harvested 9 to 12 weeks after implantation, and tumor cell suspensions prepared using collagenase (0.5 mg/ml, Sigma).
The suspension was subjected to serial washes with 1% BSA in DME to remove unbound phage. Blood vessel endothelial cells were depleted from the tumor cell mixture using magnetic beads (Dynal; Lake Success, N.Y.) coated with anti-mouse CD31 antibody (MEC 13.3; Pharminogen; San Diego, Calif.) according to the manufacturer's instructions. Phage bound to the CD31-negative cell population were rescued by adding bacteria, and the rescued phage titered and amplified in liquid culture.

[2] = tested on: MDA-MB-435 human breast carcinoma cell xenografts; assay: Tumor treatment study; format: in vivo, nude mice; details: 67 nmol intravenously twice a week; after about two weeks of treatment; FIG. 8; listed as peptide SEQ ID NO: 1
Experimental: A tumor treatment study was performed using MDA-MB-435 human breast carcinoma cell xenografts prepared by subcutaneously injecting 1×10^6 cells in 200 μl PBS into nude mice. Mice (five per group) were treated intravenously twice a week with 67 nmol CGNKRTRGC peptide (SEQ ID NO: 1) or with PBS starting four weeks after tumor implantation. Tumor volumes were measured once a week for four weeks.

[3] = tested on: normal tissues; assay: Localization of fluorescent peptide in normal tissues after intravenous injection; format: in vivo, mouse
Experimental: Several normal tissues also were studied for localization of the CGNKRTRGC (SEQ ID NO: 1) peptide.
(§1) Detection of fluorescent peptides and biotin-conjugated tomato lectin was performed as follows. Fluorescein-conjugated peptide CGNKRTRGC (SEQ ID NO: 1) was prepared as described above. The peptide (100 μg in 200 μl of PBS) was injected into the tail vein of mice bearing MDA-MB-435 breast carcinoma tumors. After 10 minutes, biotin-conjugated lycopersicon esculentum (tomato) lectin (100 μg in 200 μl of PBS; Vector; Burlingame, Calif.) was also injected into the tail vein. After 5 minutes, the mouse was perfused through the heart with 4% paraformaldehyde. Tissues were removed and frozen in O.C.T. embedding medium (Tissue-Tek; Torrence, Calif.). Blood vessels were visualized by detecting the tomato lectin with streptavidin-conjugated Alexa 594 (Molecular Probes; Eugene, Oreg.). Green staining indicated the presence of peptide SEQ ID NO: 1, while red staining indicated the presence of tomato lectin.

[4] = tested on: Cultured MDA-MB-435 cells; assay: Trypan blue cytotoxicity in cultured MDA-MB-435 cells; format: cell-based; details: FIG. 7
Experimental: Cultured MDA-MB-435 cells were incubated with a control peptide (CGEKRTRGC; SEQ ID NO: 3) or with CGNKRTRGC (SEQ ID NO: 1) at 37° C. for 1, 2 or 4 hours. After staining with trypan blue, which is taken up by cells that are dead or dying, the total number of cells were counted, and the percentage of trypan blue stained cells determined. […] In particular, after four hours incubation, at least 7-fold greater trypan blue uptake was evident in cell cultures incubated with peptide SEQ ID NO: 1 as compared to cultures incubated with control peptide.

[5] = tested on: MDA-MB-435 tumor lymphatic vasculature; assay: Localization in 435 tumors after tail vein injection, with blood vessel and lymphatic marker staining; format: in vivo, nude mice
Experimental: Localization of phage displaying SEQ ID NO: 1 was analyzed with anti-T7 phage antibody following intravenous injection of CGNKRTRGC (SEQ ID NO: 1)-displaying phage into the tail vein of nude mice carrying an MDA-MB-435 tumor. […] Similar results were obtained by a phage overlay assay in which phage were added onto frozen tissue sections, rather than being injected into the mice.
An anti-T7 antiserum was prepared by immunizing New Zealand white rabbits with 10^10 pfu of T7 nonrecombinant phage (Novagen). The initial immunization performed in complete Freund's Adjuvant, while boosters were administered in incomplete Freund's Adjuvant. The antibody titer was estimated by ELISA, and the antiserum was absorbed against BLT5615 bacterial and mouse liver lysates. Phage were detected using anti-T7 phage antiserum (1:1000 dilution) and goat anti-rabbit secondary antibody conjugated to fluorescein.
as §1
MDA-MB-435 breast carcinoma tumors contain lymphatic vessels that are positive for markers of lymphatic endothelial cells. To determine whether CGNKRTRGC (SEQ ID NO: 1) homed to the 435 tumor lymphatics, tumor sections were stained with the lymphatic markers VEGFR-3 and LYVE-1. Lymphatic vessels were visualized using a rat anti-mouse VEGFR-3 antibody or with rabbit anti-LYVE-1 antibody produced as described below.
LYVE-1 antibody was produced by immunizing New Zealand White rabbits with a peptide encoding the 19 most C-terminal residues of mouse LYVE-1 (Prevo et al., J. Biol. Chem. 276:19420 (2001)) conjugated to keyhole limpet hemocyanin (KLH; Pierce; Iselin, N.J.). The initial immunization was done in complete Freund's Adjuvant, with boosters performed in incomplete Freund's Adjuvant. Specific antibody was obtained following affinity purification with the peptide coupled to Sulfolink Gel (Pierce). Tissues were processed for fifteen minutes following injection with fluorescein-conjugated peptide using rat anti-mouse anti-VEGFR-3, and rabbit anti-LYVE-1. The anti-LYVE-1 antibody was used at a 1:500 dilution on cryo sections, followed by detection with goat anti-rabbit secondary antibody conjugated to Alexa 594 (Molecular Probes).

[6] = tested on: mitochondrial membranes; details: 10 μM; cited from earlier work
[7] = tested on: cultured KRIB cells; assay: Phage binding and peptide internalization in cultured KRIB cells; format: cell-based
[8] = tested on: cultured MDA-MB-435 tumor cells; assay: Internalization and subcellular localization in cultured MDA-MB-435 cells; format: cell-based, human; details: one to five hours at 37° C., FIG. 2
Experimental: A fluorescein-conjugated CGNKRTRGC (SEQ ID NO: 1) peptide was utilized to further analyze cellular internalization and subcellular localization. […] Natl. Acad. Sci. 97:13003 (2000). The fluorescein-conjugated peptides were incubated with cultured MDA-MB-435 tumor cells for one to five hours at 37° C. […] Cultured 435 cells also internalized the CGNKRTRGC (SEQ ID NO: 1) phage, although the phage accumulated in the cytoplasm of the cells.

CGNKRTRGC [CGNKRTRGC (SEQ ID NO: 1) peptide]
inhibition of binding of CGNKRTRGC phage by synthetic peptide [1]: inhibited binding | mean tumor volume compared to mice administered PBS alone [2]: at least several fold less; also recorded: slowed significantly | localization in normal tissues [3]: Fluorescence was seen only in the kidney tubuli | trypan blue uptake relative to cultures incubated with control peptide ([4]; four hours incubation, 37° C.): at least 7 fold | cytotoxic effect compared to control peptide SEQ ID NO: 3 ([4]; later time points of 1, 2 or 4 hours, listed as peptide SEQ ID NO: 1): significantly enhanced cytotoxic effect; also recorded: significantly enhanced cytotoxicity | co-localization with macrophage marker F4/80 ([5]; VEGFR-3 positive single cells in tumor): lack of co-localization | localization within 435 tumors after tail vein injection ([5]; mouse, in vivo): accumulated in VEGFR-3 positive single cells within the tumor

D(KLAKLAK)2
mitochondrial swelling [6]: marked mitochondrial swelling

fluorescein-conjugated CGNKRTRGC (SEQ ID NO: 1) peptide: fluorescein-conjugated CGNKRTRGC peptide (cysteine pairing not given here; also: fluorescein conjugate, site not given here)
internalization of fluorescein-labeled peptide by cultured KRIB cells [7]: internalized | uptake and subcellular localization of fluorescein-conjugated peptide ([8]; listed as fluorescein-conjugated SEQ ID NO: 1): internalized and translocated to the nucleus | uptake and subcellular localization of fluorescein-conjugated peptide ([8]; listed as fluorescein-labeled peptide SEQ ID NO: 1): internalized | co-localization with lymphatic markers VEGFR-3 and LYVE-1 ([5]; 435 tumor tissue, FIG. 5): co-localized | internalization and nuclear transport in vivo ([5]; 435 tumor tissue, FIG. 5): internalized and transported into nuclei | internalization and nuclear transport in vivo ([5]; 435 tumor tissue, FIG. 5, listed as fluorescein-conjugated SEQ ID NO:1): internalized and transported into nuclei | internalization and nuclear transport in vivo ([5]; 435 tumor tissue, FIG. 5, listed as fluorescein-conjugated peptide (SEQ ID NO: 1)): accumulated in the nuclei lining the vessel-like structures | co-localization with blood vessels labeled with biotin-conjugated tomato lectin ([5]; FIGS. 3A-C): notable lack of co-localization | blood vessel markers Meca-32 and CD31 on the vessels in which the substance localized ([5]; mouse, in vivo): negative | localization within 435 tumors after tail vein injection ([5]; mouse, in vivo): localized in vessel-like structures and in individual cells within the tumor
